The target in data set [1] is T1, recombinant human 5-HT5A receptor (Homo sapiens, UniProt P47898).
T1 construct: expressed in transfected cells; host or cells: HEK-EBNA (Human Embryonic Kidney-EBNA) cells, transient cDNA expression; membranes used
Description: [3H]LSD radioligand binding assay. As to conditions: [3H]LSD (approximately 1 nM), membranes from HEK-EBNA cells transiently expressing 5-HT5A receptors; Ki from IC50 by Cheng-Prussoff equation. The method, then: A [^3H]LSD radioligand binding assay was used to determine the affinity of the compounds for the recombinant human 5-HT5A receptor, in membranes from transiently (cDNA) expressed 5-HT5A receptors in Human Embryonic Kidney-EBNA (HEK-EBNA) cells. Assay buffer consisted of Tris (50 mM) buffer containing 1 mM EGTA, 10 mM MgCl2 (pH 7.4) and 10 μM pargyline. The binding assay was carried out in 96-well-plates in the presence of [^3H]LSD (approximately 1 nM), approximately 2 μg/well of membrane protein, and 0.5 mg of Ysi-poly-1-lysine SPA beads in a final volume of 200 μl of buffer. Non-specific binding was defined using methiothepin 2 μM. Compounds were tested at 10 concentrations. All assays were conducted in duplicate and repeated at least two times. Assay plates were incubated for 120 min at room temperature before centrifugation. Bound ligand was determined using a Packard Topcount scintillation counter. IC50 values were calculated using a non-linear curve fitting program and Ki values calculated using the Cheng-Prussoff equation.

The text below walks through data of patent publication US7994324B2, “2-aminoquinoline derivatives” (Hoffmann-La Roche Inc., priority 2008, dated 2011).

A word on the Ki: it is the equilibrium dissociation constant of an inhibitor or competing ligand from its target. What is called melting point is the temperature, or range, at which the solid turns liquid.

T1 sequence (P47898 whole entry): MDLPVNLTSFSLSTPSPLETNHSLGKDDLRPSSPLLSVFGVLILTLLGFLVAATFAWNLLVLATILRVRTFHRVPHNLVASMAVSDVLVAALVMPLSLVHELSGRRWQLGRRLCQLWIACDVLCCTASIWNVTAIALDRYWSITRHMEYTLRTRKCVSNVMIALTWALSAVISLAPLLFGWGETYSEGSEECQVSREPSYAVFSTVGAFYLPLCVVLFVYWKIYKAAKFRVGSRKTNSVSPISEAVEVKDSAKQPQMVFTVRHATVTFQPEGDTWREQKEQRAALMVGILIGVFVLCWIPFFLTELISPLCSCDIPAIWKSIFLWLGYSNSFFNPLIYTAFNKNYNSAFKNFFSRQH

Regarding `COc1cccc2c1C(Nc1ccc3c(N)cccc3n1)CC2` (racemic) [Example 19, rac-N^2-(7-Methoxy-indan-1-yl)-quinoline-2,5-diamine], the Ki in data set [1] came to 6.1 nM. Same read-out and setting: in the case of `COc1cccc2c1C(Nc1ccc3c(NS(=O)(=O)N(C)C)cccc3n1)CC2` (racemic) [Example 20, rac-N′-{2-[(7-methoxy-indan-1-yl)amino]quinolin-5-yl}-N,N-dimethylsulfamide] it was 2.3 nM; in that of `Nc1cccc2nc(NC3Cc4ccccc4C3)ccc12` (racemic) [Example 23, rac-N^2-Indan-2-yl-quinoline-2,5-diamine], 219 nM; in that of `Nc1cccc2nc(NC3CCc4cc(F)ccc43)ccc12` (racemic) [Example 37, rac-N^2-[5-Fluoro-indan-1-yl]-quinoline-2,5-diamine], 12.5 nM. Take `COc1cccc2c1C(Nc1ccc3c(NCCSC)cccc3n1)CO2` (racemic) [Example 39, rac-N^2-(4-Methoxy-2,3-dihydro-benzofuran-3-yl)-N^5-(2-methylsulfanyl-ethyl)-quinoline-2,5-diamine]: in data set [1], the Ki worked out at 25.2 nM. Regarding `O=C(Cc1cccs1)Nc1cccc2nc(NC3CCc4cc(F)ccc43)ccc12` (racemic) [Example 49, rac-N-[2-(5-Fluoro-indan-1-ylamino)-quinolin-5-yl]-2-thiophen-2-yl-acetamide], the melting point came to 184 °C. Still for that read-out and setting: the figure for `O=C(Cc1cc(F)cc(F)c1)Nc1cccc2nc(NC3CCc4cc(F)ccc43)ccc12` (racemic) [Example 50, rac-2-(3,5-Difluoro-phenyl)-N-[2-(5-fluoro-indan-1-ylamino)-quinolin-5-yl]-acetamide] is 203 °C.

Regarding `CNc1cccc2nc(N[C@@H]3CCc4ccccc43)ccc12` [Example 1, N^2-(R)-Indan-1-yl-N^5-methyl-quinoline-2,5-diamine], the Ki in data set [1] came out at 22.5 nM. Take `c1ccc2c(c1)CC[C@H]2Nc1ccc2c(NC3CCOCC3)cccc2n1` [Example 3, N^2-(R)-Indan-1-yl-N^5-(tetrahydro-pyran-4-yl)-quinoline-2,5-diamine]: the Ki in data set [1] was determined as 26 nM. Still for that read-out and setting: in the case of `c1ccc2c(c1)CC[C@H]2Nc1ccc2c(N3CCOCC3)cccc2n1` [Example 4, (R)-Indan-1-yl-(5-morpholin-4-yl-quinolin-2-yl)-amine] it was 105 nM; in that of `CSCCNc1cccc2nc(N[C@@H]3CCc4ccccc43)ccc12` [Example 5, N^2-(R)-Indan-1-yl-N^5-(2-methylsulfanyl-ethyl)-quinoline-2,5-diamine], 23.5 nM. Same read-out and setting: the figure for `C[S+]([O-])CCNc1cccc2nc(N[C@@H]3CCc4ccccc43)ccc12` (stereo partly drawn) [Example 6, N^2-(R)-Indan-1-yl-N^5-(2-methanesulfinyl-ethyl)-quinoline-2,5-diamine] is 26.5 nM. `CS(=O)(=O)CCNc1cccc2nc(N[C@@H]3CCc4ccccc43)ccc12` [Example 7, N^2-(R)-Indan-1-yl-N^5-(2-methanesulfonyl-ethyl)-quinoline-2,5-diamine]: the inhibitory constant (Ki) in data set [1] worked out at 24.7 nM.

Turning to `Nc1cccc2nc(N[C@@H]3CCc4ccccc43)ccc12` [Example 16, (R)—N^2-Indan-1-yl-quinoline-2,5-diamine], the Ki in data set [1] stood at 7.2 nM.

For `O=S(=O)(Nc1cccc2nc(N[C@@H]3CCc4ccccc43)ccc12)C1CC1` [Example 17, Cyclopropanesulfonic acid[2-((R)-indan-1-ylamino)-quinolin-5-yl]-amide], the Ki in data set [1] worked out at 32.2 nM. Same read-out and setting: in the case of `O=C(Nc1cccc2nc(N[C@@H]3CCc4ccccc43)ccc12)C1CC1` [Example 22, Cyclopropanecarboxylic acid[2-((R)-indan-1-ylamino)-quinolin-5-yl]-amide] it was 68 nM; in that of `COCCOc1cccc2nc(N[C@@H]3CCc4ccccc43)ccc12` [Example 24, (R)-Indan-1-yl-[5-(2-methoxy-ethoxy)-quinolin-2-yl]-amine], 90.6 nM; in that of `c1ccc2c(c1)CC[C@H]2Nc1ccc2c(C3CC3)cccc2n1` [Example 44, (5-Cyclopropyl-quinolin-2-yl)-(R)-indan-1-yl-amine], 27.7 nM.
